Test results taken from the METLIN SMRT retention time set (Domingo-Almenara et al. 2019).

Test: gradient 5% acetonitrile 3 min, to 50% in 2 min, to 85% in 15 min, held 3 min, 100 µL/min
Conditions: column: Zorbax Extend-C18 2.1 x 50 mm; eluents: water / acetonitrile, 0.1% formic acid
Summary of the method: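 Pure standards were run in mixtures of ~100 molecules by HPLC coupled to a quadrupole time-of-flight mass spectrometer. The column was a Zorbax Extend-C18 (2.1 × 50 mm, 1.8 μm) at 100 μL/min, with water and acetonitrile each containing 0.1% formic acid, in positive and negative ionization mode. Dead and dwell volumes were 40 μL and 900 μL. Retention time was taken from computationally picked adduct peaks, each manually inspected, with data collected over 3 months.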

Row | SMILES | RP-LC retention time
1 | O=C(NC1CCCC1)C1CCN(c2ncccc2-c2nc(-c3ccc(Cl)cc3)no2)CC1 | 1130 s
2 | COc1ccc(C(=O)N(C)CC2(C)CCOCC2)cc1OC | 677 s
3 | CCCNC(=O)C1CCCN(c2ccc(SCC(=O)Nc3cc(F)ccc3F)nn2)C1 (stereo not given) | 698 s
4 | Cc1nc2c(sc3nc(-c4ccccc4)ccc32)c(=O)n1CC(=O)NCc1ccccc1Cl | 1030 s
5 | CCCCNC(=O)CSc1cc(N2CCC(C(=O)NC3CC3)CC2)ncn1 | 615 s
6 | CNC(=O)[C@@H]1C[C@@H](O)CN1C1CCN(C(=O)CC2=CCCCC2)CC1 | 574 s
7 | Cc1sc2ccn(Cc3ccc(F)cc3)c(=O)c2c1C(=O)NCc1cccs1 | 945 s
8 | COc1ccc(C(=O)Nc2cnc(N3CCOCC3)nc2)cc1 | 618 s
9 | CCN(CC)C(=O)c1cc2c(s1)CCC(C(=O)NCc1ccncc1)C2 (stereo not given) | 557 s
10 | O=C(CN1C(=O)C2CCCCN2c2ccc(S(=O)(=O)N3CCCCC3)cc21)NC1CCCCC1 (stereo not given) | 1030 s
11 | CCc1onc(C)c1C1CCCN1C(=O)Nc1ccccc1Cl (stereo not given) | 907 s
12 | COc1ccc(-c2cc3nn(CC(=O)NCc4ccc(F)cc4)c(=O)n3c(C)n2)cc1 | 880 s
13 | Cc1c(-c2noc(-c3ccccc3F)n2)nnn1Cc1ccccc1 | 1030 s
14 | O=S(=O)(Nc1ccc(Cn2cncn2)cc1)c1ccc(F)cc1 | 701 s
15 | CCc1nc2cc(-c3noc(COc4ccccc4)n3)ccc2o1 | 1060 s
16 | CN(C)C(=O)c1cnn(-c2cccc(F)c2)c1-n1cccc1 | 806 s
17 | CCOC(=O)N1CCN(Cc2nc(-c3ccc(N4CCCC(C)C4)nc3)no2)CC1 (stereo not given) | 855 s
18 | O=S(=O)(Cc1cccc(F)c1)NCCc1ccsc1 | 852 s
19 | CCn1c(=O)n(Cc2ccccc2C(F)(F)F)c2cncnc21 | 834 s
20 | CCOCCCNC(=O)c1nnc(-c2ccc(S(=O)(=O)N3CCOCC3)cc2)o1 | 727 s
21 | O=C(Nc1ccc(F)cc1)C1CCN(c2cc(N3CCCCC3)ncn2)CC1 | 696 s
22 | Cc1noc(C)c1C1CCCN1C(=O)Nc1ccccc1Br (stereo not given) | 836 s
23 | O=CN1CC/C(=C/c2ccc3c(c2)OCO3)C1=O | 784 s

Row | SMILES | RP-LC retention time
24 | CC1=C(c2ccc(C(C)C)cc2)S(=O)(=O)N=C1N1CCC(C(=O)NCCN2CCCC2)CC1 | 693 s
25 | CCCN1C(=O)Cc2ccccc2C1C(=O)NCc1ccc2c(c1)OCO2 (stereo not given) | 765 s
26 | O=C(Cn1c(=O)c2cccn2c2ccc(F)cc21)N1CCc2ccccc2C1 | 911 s
27 | O=C(Nc1c(-c2ccc(F)cc2)nc2ccccn12)c1ccccc1 | 638 s
28 | COc1ccc(-c2nnc(-c3ccccc3)o2)cc1S(=O)(=O)N1CCCCCC1 | 1070 s
29 | COC1=C(OC)C(=O)c2ccccc2C1=O | 878 s
30 | Cc1ccc(NC(=O)NC2CCN(c3ccc(C)c(C)c3)C2=O)c(C)c1 (stereo not given) | 949 s
31 | CCCn1cc(C(=O)NCc2cccs2)c2cccnc21 | 799 s
32 | Cc1cccc(-c2nc(C3CCN(S(=O)(=O)c4cc(C)ccc4C)CC3)no2)c1 | 1320 s
33 | CCCCN1CCN(C(=O)c2cn(-c3cc(N4CCC(C)CC4)ncn3)cn2)CC1 | 690 s
34 | NC(=O)c1oc2ccccc2c1NC(=O)c1cc(=O)c2ccccc2o1 | 805 s
35 | CN1C(=O)c2cccn2CC1C(=O)NCc1cccs1 (stereo not given) | 654 s
36 | Cc1ccc(-c2csc3c(=O)n(CC(=O)N4CCOc5ccc(C)cc54)cnc23)cc1 | 1120 s
37 | O=C(Nc1ccc(OCc2nnc(-c3ccccc3)o2)cc1)c1ccc(Br)o1 | 936 s
38 | Fc1ccccc1N1CCN(c2ncc3c(n2)CCN(Cc2cccc(F)c2F)C3)CC1 | 826 s
39 | COc1ccc(-c2noc(C3CC(=O)N(c4ccc(C)cc4)C3)n2)cc1OC (stereo not given) | 885 s
40 | Cc1cccc(CNC(=O)c2[nH]c3cc(C)sc3c2CN2CCOCC2)c1 | 724 s
41 | O=C(Nc1nccs1)C1CCN(C(=O)C2CC(=O)N(c3ccccc3)C2)CC1 (stereo not given) | 658 s
42 | Cc1nc(-c2csc(S(=O)(=O)N3CCC(C(=O)NCCc4cccs4)CC3)c2)no1 | 860 s
43 | O=C(NCCCn1nc(-c2ccc(F)cc2)ccc1=O)c1cccc(-n2cnnn2)c1 | 683 s
44 | CCOc1cc(CNC(=O)c2nc(N3CCOCC3)c3ccccc3n2)ccc1OC | 660 s
45 | CCN(CC)C(=O)c1cc2c(s1)CCC(C(=O)O)C2 (stereo not given) | 703 s
46 | CC1(C)SC2C(NC(=O)COc3ccccc3)C(=O)N2C1C(=O)O (stereo not given) | 821 s

Row | SMILES | RP-LC retention time
47 | O=C(C1=CN(c2cccc(C(F)(F)F)c2)c2cc(F)ccc2S1(=O)=O)N1CCOCC1 | 858 s
48 | CC(C)NC(=O)c1ccc(OCC2CCN(C(=O)c3ccc(Cl)cc3)CC2)cc1 | 918 s
49 | COC(=O)c1cccc(NC(=O)c2cnc(-c3ccc(F)cc3)nc2-c2ccncc2)c1 | 912 s
50 | O=C1CC(c2noc(-c3cc(F)cc(F)c3)n2)CN1c1ccc(Cl)cc1 (stereo not given) | 1100 s
51 | COc1ccc(C2Cn3cnc(C(=O)N4CCC(C(=O)NC5CCCCCCC5)CC4)c3CO2)cc1 (stereo not given) | 862 s
52 | O=C(NC1CCCCCC1)c1nc(Cn2c(=O)oc3ccc(Cl)cc32)no1 | 1050 s
53 | Cc1ccc(CNC(=O)C2(C)Cn3nc(C(=O)NCCN(C)C)cc3C(=O)N2C)cc1 (stereo not given) | 639 s
54 | COc1ccc2c(c1)C1(CCN(C(=O)CC(C)(C)C)C1)C(=O)N2C (stereo not given) | 782 s
55 | COc1ccc(NC(=O)N2c3ccccc3NC3=C(C(=O)CCC3)C2c2ccco2)c(OC)c1 (stereo not given) | 816 s
56 | O=C(c1ccc2c(c1)OCO2)N1CC2CN(S(=O)(=O)c3ccc(F)cc3)CC(C1)O2 | 774 s
57 | COc1cc(OC)c(NC(=O)NC2CCN(c3nc4ccccc4n(C)c3=O)CC2)cc1Cl | 945 s
58 | CC(C)CN1CCN(C(=O)c2nc(-c3ccnc(N4CCCCC4)c3)no2)CC1 | 588 s
59 | CCN1C(=O)c2ccccc2Oc2ccc(C(=O)NCCc3ccc(OC)c(OC)c3)cc21 | 864 s
60 | COC(=O)c1c(NCC(C)C)c2cc(F)ccc2[nH]c1=O | 734 s
61 | CC(C)NC(=O)c1ccc2c(c1)N(S(C)(=O)=O)CC2 | 691 s
62 | CCc1noc([C@@H]2CC(F)(F)CN2C(=O)c2ocnc2C)n1 | 720 s
63 | CCN(CC)CCNc1ccc2nc(C)n3c4ccc(OC)cc4c(=O)c1c23 | 610 s
64 | COc1ccc(CC2c3cc(OC)c(OC)cc3CC[N+]2(C)C)cc1OC (stereo not given) | 693 s
65 | CCCNC(=O)c1cn(-c2ccc(NC(=O)CC)cn2)cn1 | 636 s
66 | O=C1COc2c1ccc(O)c2O | 623 s
67 | COCCCNC(=O)c1cc2n(n1)CCCN(Cc1ccc(F)cc1)C2=O | 697 s
68 | CCCNC(=O)Nc1cc2c(cc1N1CCC(C(=O)OCC)CC1)n(C)c(=O)n2C | 716 s
69 | COc1ccc(-c2ncccc2CNS(=O)(=O)c2c(C)cccc2Cl)cc1 | 719 s

Row | SMILES | RP-LC retention time
70 | COc1ccc(OC)c(S(=O)(=O)Nc2ccc(-c3cn4ccc(C)nc4n3)cc2)c1 | 642 s
71 | Ic1ccccc1CNC1C2CCN(CC2)C1C(c1ccccc1)c1ccccc1 (stereo not given) | 982 s
72 | Cc1noc(-c2ccc(-n3ncc(C(=O)NC4CC4)c3C)nc2)n1 | 709 s
73 | Cc1ccc(C)c(S(=O)(=O)Nc2ccc3scnc3c2)c1 | 776 s
74 | Cc1ccc(NC(=O)C2CCCN(c3ccc(-n4ccnc4)nn3)C2)cc1F (stereo not given) | 597 s
75 | Cc1ccc(S(=O)(=O)N(C)CC2CCOC2)cc1Cl (stereo not given) | 895 s
76 | CCOC(=O)C1=C(CN(CC)CC)N(C)C(=O)NC1c1ccccc1 (stereo not given) | 618 s
77 | CS(=O)(=O)N(C1CCOCC1)C1CN(C(=O)c2n[nH]c3ccccc23)C1 | 663 s
78 | COc1ccc(CNC(=O)c2cn(-c3cc(N(C)C)ncn3)cn2)cc1 | 743 s
79 | CC(NC(=O)c1ccco1)c1nc(-c2ccc(N3CCCCCC3)cc2)no1 (stereo not given) | 1110 s
80 | CCCNC(=O)C1CCCN(c2nc3ncn(CC(=O)NCCC4=CCCCC4)c(=O)c3s2)C1 (stereo not given) | 732 s
81 | C[C@H]1CN(C(=O)c2c(F)cccc2F)C[C@@H]1c1nc(-c2ccncc2)no1 | 798 s
82 | Cc1cccc(CN2N=C(C(=O)N3CCOCC3)S(=O)(=O)c3ccc(C)cc32)c1 | 835 s
83 | CS(=O)(=O)Nc1cccc(NC(=O)CN2CCN(c3ccc4c(c3)OCCO4)C2=O)c1 | 657 s
84 | CC(C)CN1CCn2cc(S(=O)(=O)NCc3ccc(F)cc3Cl)cc2C1=O | 838 s
85 | Cn1c(=O)sc2cc(S(=O)(=O)N3CCC(C(=O)NCc4cccnc4)CC3)ccc21 | 603 s
86 | Cc1ccc(OCC(=O)Nc2nnc(SCc3nnc(-c4ccccc4C)o3)s2)c(C)c1 | 1100 s
87 | O=C(NCCc1ccncc1)C1CC(=O)N(c2n[nH]c3cc(Br)ccc23)C1 (stereo not given) | 601 s
88 | Cc1cc(Cl)ccc1S(=O)(=O)N1C[C@H](F)C[C@@H]1C(=O)N1CCOCC1 | 762 s
89 | CCOC(=O)c1cccc(Nc2nc(C(=O)OCC)nc3ccccc23)c1 | 870 s
90 | O=C(c1cc2c(=O)n(Cc3ccccc3)ccc2s1)N1CCOCC1 | 716 s
